Test results from patent publication US20100120700A1, “METHODS AND COMPOSITIONS FOR TREATING CERVICAL CANCER” (priority 2000, published 2010).

Columns and labels:
[1] = biological target: DLG2 (PDZ3) (Homo sapiens, UniProt Q15700); conditions: E6 peptide titrated against constant GST-PDZ; DLG2 (3)
Method: (§1) (1) A GST/PDZ fusion protein, as well as GST alone as a negative control, are bound to a surface (e.g., a 96-well plate) and the surface blocked and washed as described supra for the “G” assay.
(§2) (2) 50 uL per well of a solution of biotinylated PL peptide (e.g. as shown in TABLE 2) is added to the surface in increasing concentrations in PBS/BSA (e.g. at 0.1 uM, 0.33 uM, 1 uM, 3.3 uM, 10 uM, 33 uM, and 100 uM). In one embodiment, the PL peptide is allowed to react with the bound GST/PDZ fusion protein (as well as the GST alone negative control) for 10 minutes at 4° C. followed by 20 minutes at 25° C. The plate is washed 3 times with ice cold PBS to remove unbound labeled peptide.
(§3) (3) The binding of the PL peptide to the immobilized PDZ-domain polypeptide is detected as described supra for the “G” assay.
(§4) (4) For each concentration of peptide, the net binding signal is determined by subtracting the binding of the peptide to GST alone from the binding of the peptide to the GST/PDZ fusion protein. The net binding signal is then plotted as a function of ligand concentration and the plot is fit (e.g. by using the Kaleidagraph software package curve fitting algorithm; Synergy Software) to the following equation, where “Signal[ligand]” is the net binding signal at PL peptide concentration “[ligand],” “Kd” is the apparent affinity of the binding event, and “Saturation Binding” is a constant determined by the curve fitting algorithm to optimize the fit to the experimental data: […]

[2] = biological target: DLG3 (PDZ1-2) (Homo sapiens, UniProt Q92796); conditions: E6 peptide titrated against constant GST-PDZ; DLG3 (1-2)
Chain of DLG3 (PDZ1-2) (Q92796 129-315 limits assumed): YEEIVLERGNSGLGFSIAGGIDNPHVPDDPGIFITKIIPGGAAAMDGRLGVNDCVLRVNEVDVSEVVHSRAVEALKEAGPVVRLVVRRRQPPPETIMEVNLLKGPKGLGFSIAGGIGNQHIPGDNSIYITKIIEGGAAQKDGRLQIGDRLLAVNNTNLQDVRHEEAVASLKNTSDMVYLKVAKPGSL
Method: as §1, §2, §3, §4

[3] = biological target: Magi1C (PDZ2) (Homo sapiens, UniProt Q96QZ7); conditions: E6 peptide titrated against constant GST-PDZ; Table 10 prints Magi1C (1)
Chain of Magi1C (PDZ2) (Q96QZ7 463-566): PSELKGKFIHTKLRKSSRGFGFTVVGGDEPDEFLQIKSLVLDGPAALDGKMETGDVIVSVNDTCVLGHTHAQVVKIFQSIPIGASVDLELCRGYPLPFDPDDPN
Method: as §1, §2, §3, §4

[4] = biological target: Magi3 (PDZ1) (Homo sapiens, UniProt Q5TCQ9); conditions: E6 peptide titrated against constant GST-PDZ; Magi3 (1)
Chain of Magi3 (PDZ1) (Q5TCQ9 401-502): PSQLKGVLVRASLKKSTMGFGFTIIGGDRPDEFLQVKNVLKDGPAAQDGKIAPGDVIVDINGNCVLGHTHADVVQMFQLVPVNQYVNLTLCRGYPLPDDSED
Method: as §1, §2, §3, §4

[5] = biological target: PSD95 (PDZ1-3) (Homo sapiens, UniProt P78352); conditions: E6 peptide titrated against constant GST-PDZ; PSD95 (1-3)
Method: as §1, §2, §3, §4

[6] = biological target: PSD95 (PDZ2) (Homo sapiens, UniProt P78352); conditions: E6 peptide titrated against constant GST-PDZ; PSD95 (2)
Method: as §1, §2, §3, §4

[7] = test system: SAST1 KIAA; conditions: E6 peptide titrated against constant GST-PDZ
Method: as §1, §2, §3, §4

[8] = test system: SAST2; conditions: E6 peptide titrated against constant GST-PDZ; SAST2 (1)
Method: as §1, §2, §3, §4

[9] = biological target: SIP1 (PDZ1) (Homo sapiens, UniProt Q15599); conditions: E6 peptide titrated against constant GST-PDZ; SIP1 (1)
Chain of SIP1 (PDZ1) (Q15599 with tags, fused parts or gaps): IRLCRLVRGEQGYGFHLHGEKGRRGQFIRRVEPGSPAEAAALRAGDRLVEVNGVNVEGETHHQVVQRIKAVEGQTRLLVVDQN
Method: as §1, §2, §3, §4

[10] = test system: VARTUL; conditions: E6 peptide titrated against constant GST-PDZ
Method: as §1, §2, §3, §4

20 mer peptide corresponding to the C-terminus of HPV16 E6 (PDZ ligand), biotinylated in binding assays; ends SSRTRRETQL (SEQ ID NO: 13) [HPV E6 #16]
EC50 [1]: 1.6 µM
EC50 [2]: 3.8 µM
EC50 [3]: 0.056 µM
EC50 [4]: 0.31 µM
EC50 [5]: 1 µM
EC50 [6]: 6.8 µM
EC50 [7]: 0.58 µM
EC50 [8]: 1.2 µM
EC50 [9]: 7.5 µM
EC50 [10]: 0.94 µM
